pIC50: −log10 of the molar value. Values joined by “and” are separate entries in the source; they are usually repeats but may differ in a detail not shown here. Identical values can stand only once.
Tested on: 521955-158-R7-J2-PDC spheroids, viability % test/control
Experiment: Anticancer human tumor 521955-158-R7-J2-PDC patient-derived pancreatic carcinoma cell line growth inhibition [TAK]
Conditions: spheroids with HUVEC and MSC; for viability, T/C: stronger effect = lower value
Description: Combinatorial screen of targeted agents with TAK-243 and ipatasertib in multi-cell type tumor spheroids
A high-throughput screen of multi-cell type tumor spheroids was designed to identify active combinations of targeted small molecules and TAK-243 or ipatasertib. Complex spheroids include a stromal component modeled by human endothelial cells (HUVEC) and fibroblasts modeled by human mesenchymal stem cells (MSCs). The concentration ranges selected for each drug and investigational agent were based upon clinically achievable concentrations if the clinical Cmax of the agent was known.
Compounds. The drugs and investigational agents: TAK-243 (785004), ipatasertib (767898), everolimus (733504), selumetinib (741078), bortezomib (756655), trametinib (758246), ixazomib (758254), vemurafenib (761431), dabrafenib (764134), sapanisertib (764658), alpelisib (765974), and copanlisib (816437), were obtained from the National Cancer Institute (NCI) Developmental Therapeutics Program Chemical Repository. The FDA-approved anticancer drug set is available from the NCI Developmental Therapeutics Program. […] The stock solutions were prepared in dimethyl sulfoxide (DMSO, Sigma-Aldrich, St. Louis, MO, cat. D2650) at 800-fold the tested concentration and stored at -70 degrees C prior to their use. All drugs and investigational agents were tested over a range starting from a high concentration at or near the clinical Cmax and decreasing in half-log increments. If the clinical Cmax for an agent had not been determined, the highest concentration tested was 10 microM.
NCI60 Cell Culture. NCI60 cell lines were obtained from the NCI Developmental Therapeutics Program Tumor Repository. For each lot of cells, the Repository performed Applied Biosystems AmpFLSTR Identifiler testing with PCR amplification to confirm consistency with the published Identifier STR profile for each cell line. Cells were kept in continuous culture for no more than 20 passages. The optimal seeding densities for each of the cell lines at each time point assessed were determined prior to performing the concentration response studies. Briefly, the NCI60 human tumor lines were grown as monolayers in RPMI 1640 medium supplemented with 10% FBS and 2 mmol/L L-glutamine.
An additional 2 lines were from the NCI60 cell line panel including melanomas, MALME-3M and SK-MEL-2. Pooled donor human umbilical vein endothelial cells (HUVEC, Lonza, cat. CC-2519) and human mesenchymal stem cells (hMSC, Lonza, cat. PT-2501) were purchased from Lonza (Walkersville, MD).
PDMR cell lines were grown in complete medium (DC medium): Dulbecco's modified Eagle's medium (DMEM)/F12 supplemented with 5% fetal bovine serum (FBS), 2 mM L-glutamine, 100 U/mL penicillin and 100 µg/ml streptomycin, 0.4 µg/ml hydrocortisone, 10 ng/ml epidermal growth factor (EGF) recombinant human protein, 24 µg/mL adenine, and 0.1 mg/mL primocin. During culture from frozen stock vials, PDMR cells were cultured in the same medium containing 10 µM Y-27632 (see Table 3). The PDCs were cultured in complete DMEM/F12 media without 10 microM Y-27632 dihydrochloride for at least two passages prior to the screen. The pooled donor HUVEC and hMSC were cultured in endothelial cell growth medium 2 (PromoCell, Heidelberg, Germany, cat. C-22011) and mesenchymal stem cell growth medium 2 (PromoCell, cat. C-28009), respectively. For all experiments, HUVEC and hMSC were used at passages </=5.
For the pre-screen, cell seeding densities were determined from a titration spanning the range from 5,000 to 313 cells per well. The mct-spheroids including 60% malignant cells, 25% HUVEC and 15% MSC dispensed as a mixture into U-bottom Ultra-Low Attachment 384-well plates (Corning, NY)
High-throughput Drug Combination Screening.
Prior to their inoculation into 384-well plates, malignant cells, HUVEC, and hMSC were removed from T flasks using TrypLE express (Thermo Fisher Scientific, cat. 12605036) and harvested by centrifugation for 5 min at 233 x g. […]

[1] = curve of first compound, second compound 0.3 µM
[2] = curve of first compound, second compound 0.949 µM
[3] = curve of first compound, second compound 3 µM
[4] = curve of first compound, second compound 9.49 µM
[5] = curve of first compound, second compound 30 µM
[6] = second compound 0.3 µM, first compound 0.000316 µM
[7] = second compound 0.3 µM, first compound 0.001 µM
[8] = second compound 0.3 µM, first compound 0.00316 µM
[9] = second compound 0.3 µM, first compound 0.01 µM
[10] = second compound 0.949 µM, first compound 0.000316 µM
[11] = second compound 0.949 µM, first compound 0.001 µM
[12] = second compound 0.949 µM, first compound 0.00316 µM
[13] = second compound 0.949 µM, first compound 0.01 µM
[14] = second compound 3 µM, first compound 0.000316 µM
[15] = second compound 3 µM, first compound 0.001 µM
[16] = second compound 3 µM, first compound 0.00316 µM
[17] = second compound 3 µM, first compound 0.01 µM
[18] = second compound 9.49 µM, first compound 0.000316 µM
[19] = second compound 9.49 µM, first compound 0.001 µM
[20] = second compound 9.49 µM, first compound 0.00316 µM
[21] = second compound 9.49 µM, first compound 0.01 µM
[22] = second compound 30 µM, first compound 0.000316 µM
[23] = second compound 30 µM, first compound 0.001 µM
[24] = second compound 30 µM, first compound 0.00316 µM
[25] = second compound 30 µM, first compound 0.01 µM
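Further: spheroids exposed to compound for 7 days before readout.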

## COC1CC2CCC(C)C(O)(O2)C(=O)C(=O)N2CCCCC2C(=O)OC(C(C)CC2CCC(OCCO)C(OC)C2)CC(=O)C(C)C=C(C)C(O)C(OC)C(=O)C(C)CC(C)C=CC=CC=C1C (configuration not stated) + CC(C)NCC(C(=O)N1CCN(c2ncnc3c2C(C)CC3O)CC1)c1ccc(Cl)cc1
[1]
  pIC50: < 7.00
[2]
  pIC50: < 7.00
[3]
  pIC50: < 7.00
[4]
  pIC50: < 7.00
[5]
  pIC50: < 7.00
[6]
  viability, T/C: 103%
[7]
  viability, T/C: 72.1%
[8]
  viability, T/C: 71.6%
[9]
  viability, T/C: 102%
Second compound 0.3 µM, first compound 0.0316 µM
  viability, T/C: 110%
Second compound 0.3 µM, first compound 0.1 µM
  viability, T/C: 115%
[10]
  viability, T/C: 81.6%
[11]
  viability, T/C: 73.5%
[12]
  viability, T/C: 100%
[13]
  viability, T/C: 91%
Second compound 0.949 µM, first compound 0.0316 µM
  viability, T/C: 111%
Second compound 0.949 µM, first compound 0.1 µM
  viability, T/C: 85.9%
[14]
  viability, T/C: 84.7%
[15]
  viability, T/C: 89.1%
[16]
  viability, T/C: 74.7%
[17]
  viability, T/C: 89.5%
Second compound 3 µM, first compound 0.0316 µM
  viability, T/C: 104%
Second compound 3 µM, first compound 0.1 µM
  viability, T/C: 93.7%
[18]
  viability, T/C: 86.2%
[19]
  viability, T/C: 86.3%
[20]
  viability, T/C: 82.2%
[21]
  viability, T/C: 85.8%
Second compound 9.49 µM, first compound 0.0316 µM
  viability, T/C: 106%
Second compound 9.49 µM, first compound 0.1 µM
  viability, T/C: 105%
[22]
  viability, T/C: 90.3%
[23]
  viability, T/C: 108%
[24]
  viability, T/C: 98.2%
[25]
  viability, T/C: 106%
Second compound 30 µM, first compound 0.0316 µM
  viability, T/C: 104%
Second compound 30 µM, first compound 0.1 µM
  viability, T/C: 116%

## CCCS(=O)(=O)Nc1ccc(F)c(C(=O)c2c[nH]c3ncc(-c4ccc(Cl)cc4)cc23)c1F
Compound 0.316 µM
  viability, T/C: 98.6% and 98.4%
Compound 1 µM
  viability, T/C: 97.2% and 95.1%
Compound 3.16 µM
  viability, T/C: 94.6% and 78.2%
Compound 10 µM
  viability, T/C: 108% and 71%
Compound 31.6 µM
  viability, T/C: 82.2% and 67.9%
Compound 100 µM
  viability, T/C: 90.6% and 82.5%
Curve of compound
  pIC50: < 4.00

## CC(C)CC(NC(=O)C(Cc1ccccc1)NC(=O)c1cnccn1)B(O)O (configuration not stated) + CC(C)NCC(C(=O)N1CCN(c2ncnc3c2C(C)CC3O)CC1)c1ccc(Cl)cc1
[1]
  pIC50: 8.25
[2]
  pIC50: 8.27
[3]
  pIC50: 8.25
[4]
  pIC50: 8.28
[5]
  pIC50: 8.29
Second compound 0.3 µM, first compound 31.6 pM
  viability, T/C: 113%
Second compound 0.3 µM, first compound 0.0001 µM
  viability, T/C: 87.5%
[6]
  viability, T/C: 92%
[7]
  viability, T/C: 104%
[8]
  viability, T/C: 92.7%
[9]
  viability, T/C: 6.67%
Second compound 0.949 µM, first compound 31.6 pM
  viability, T/C: 94.7%
Second compound 0.949 µM, first compound 0.0001 µM
  viability, T/C: 82.4%
[10]
  viability, T/C: 77.3%
[11]
  viability, T/C: 82.8%
[12]
  viability, T/C: 92.2%
[13]
  viability, T/C: 8.18%
Second compound 3 µM, first compound 31.6 pM
  viability, T/C: 93.4%
Second compound 3 µM, first compound 0.0001 µM
  viability, T/C: 101%
[14]
  viability, T/C: 86.6%
[15]
  viability, T/C: 84.9%
[16]
  viability, T/C: 93.1%
[17]
  viability, T/C: 7.99%
Second compound 9.49 µM, first compound 31.6 pM
  viability, T/C: 92.7%
Second compound 9.49 µM, first compound 0.0001 µM
  viability, T/C: 95.9%
[18]
  viability, T/C: 68.7%
[19]
  viability, T/C: 80%
[20]
  viability, T/C: 82.7%
[21]
  viability, T/C: 7.48%
Second compound 30 µM, first compound 31.6 pM
  viability, T/C: 86.8%
Second compound 30 µM, first compound 0.0001 µM
  viability, T/C: 83.7%
[22]
  viability, T/C: 75.4%
[23]
  viability, T/C: 78%
[24]
  viability, T/C: 84.1%
[25]
  viability, T/C: 5.06%
